Source: article PMC8086230 (Acta Pharmacologica Sinica, 2021)
Where two headings read alike, the source gives them in different places. Each block holds one compound with its values, some of them ahead of it.

Experiments:
[1] = not given; remark: listed apart in the source
human renal 11β-HSD2 = biological target: T1, human renal 11β-HSD2 (Homo sapiens, UniProt P80365); format: biochemical; conditions: read-out: Km for human 11β-HSD2
T1 sequence (P80365 1-405): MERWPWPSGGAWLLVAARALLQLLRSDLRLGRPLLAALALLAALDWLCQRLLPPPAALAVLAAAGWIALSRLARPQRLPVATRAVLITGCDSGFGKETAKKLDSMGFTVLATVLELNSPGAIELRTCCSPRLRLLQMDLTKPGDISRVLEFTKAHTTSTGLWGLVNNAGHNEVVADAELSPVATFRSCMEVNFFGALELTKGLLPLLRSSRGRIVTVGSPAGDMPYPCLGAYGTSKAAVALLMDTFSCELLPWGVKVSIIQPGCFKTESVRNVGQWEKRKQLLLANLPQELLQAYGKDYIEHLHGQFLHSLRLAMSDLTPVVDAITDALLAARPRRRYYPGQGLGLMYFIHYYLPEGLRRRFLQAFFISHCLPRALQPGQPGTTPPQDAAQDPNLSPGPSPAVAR

mock HEK-293 cells = experiment: Passive diffusion in mock HEK-293 cells; format: in vitro ADME, human
[2] = BCS classification stated in the discussion
[3] = after orally dosing LianhuaQingwen, 12 capsules/person

Compound: O=C(/C=C/c1ccc(O[C@@H]2O[C@H](CO)[C@@H](O)[C@H](O)[C@H]2O)cc1)c1ccc(O)cc1O [Compound 24, Isoliquiritin]
Presence in rat samples (after orally dosing LianhuaQingwen, 3.78 g/kg): Plasma, bile, urine, feces | Presence in human samples [1, 3]: Plasma, urine

Compound: C[C@]12CCC(=O)C=C1CC[C@@H]1[C@@H]2[C@@H](O)C[C@@]2(C)[C@H]1CC[C@]2(O)C(=O)CO [cortisol]
Km (human renal 11β-HSD2): 0.045 µM

Compound: CC1(C)[C@@H](O[C@@H]2O[C@H](C(=O)O)[C@@H](O)[C@H](O)[C@H]2O[C@@H]2O[C@H](C(=O)O)[C@@H](O)[C@H](O)[C@H]2O)CC[C@]2(C)[C@H]3C(=O)C=C4[C@@H]5C[C@](C)(C(=O)O)CC[C@]5(C)CC[C@@]4(C)[C@]3(C)CC[C@@H]12 [Compound 3, Licorice saponin H2]
Presence in rat samples (rat, in vivo, po): Plasma, bile, urine, feces

Compound: O=C1C[C@@H](c2ccc(O[C@@H]3O[C@H](CO)[C@@H](O)[C@H](O)[C@H]3O)cc2)Oc2cc(O)ccc21 [Compound 21, Liquiritin]
Presence in rat samples (rat, in vivo, po): Plasma, bile, urine, feces | transport rate, membrane permeation in mock cells (mock HEK-293 cells; human, 10 min, 50 µmol/L): < 5 pmol·min^−1·mg^−1 protein | Presence in human samples ([1]; in vivo, po): Plasma, urine | BCS Class [2]: BCS Class III

Compound: 22α-hydroxyglycyrrhetic acid-3-O-sulfate
Detection in rat plasma or urine samples (rat, in vivo, po): not detected | Detection in human plasma and urine samples ([1]; in vivo, po): not detected

Compound: CC1(C)[C@@H](O[C@H]2O[C@H](C(=O)O)[C@@H](O)[C@H](O)[C@H]2O[C@@H]2O[C@H](C(=O)O)[C@@H](O)[C@H](O)[C@H]2O)CC[C@]2(C)[C@H]3C(=O)C=C4[C@@H]5C[C@@](C)(C(=O)O)CC[C@]5(C)CC[C@@]4(C)[C@]3(C)CC[C@@H]12 [Compound 1, Glycyrrhizin]
Presence in rat samples (rat, in vivo, po): Plasma, bile, urine, feces | transport rate, membrane permeation in mock cells (mock HEK-293 cells): < 5 pmol·min^−1·mg^−1 protein | Presence in human samples ([1]; in vivo, po): Plasma, urine, feces | BCS Class [2]: BCS Class III

Now from value to compound:

Presence in human samples [1, 3]: Plasma, urine, feces
Compound: O=C(/C=C/c1ccc(O)cc1)c1ccc(O)cc1O [Compound 26, Isoliquiritigenin]

Presence in human samples ([1]; in vivo, po): Urine
Compound: O=C(CCc1ccc(O)cc1)c1ccc(O)cc1O [Compound M27R, Davidigenin]

Detection in rat plasma or urine samples (rat, in vivo, po): not detected | Detection in human plasma and urine samples ([1]; in vivo, po): not detected
Compound: CC1(C(=O)OC2OC(C(=O)O)C(O)C(O)C2O)CC(O)C2(C)CCC3(C)C(=CC(=O)C4C5(C)CCC(OS(=O)(=O)O)C(C)(C)C5CCC43C)C2C1 (stereo not drawn) [22α-hydroxyglycyrrhetic acid-3-O-sulfate-30-O-glucuronide]
